Structures can show the parent of a compound that is named as a salt.
Key:
[1] = Metabolism in human hepatic S9
Description: (§1) A typical incubation contained rat, mouse, dog or human liver microsomes (0.4-0.5 mg of protein), 100 mM potassium phosphate buffer (pH7.4), 50 μM test compound, an NADPH-generating system consisting of 0.5 mM NADP^+, 0.5 mM glucose-6-phosphate, 1 IU/mL glucose-6-phosphate dehydrogenase, 1 mg/mL diethylenetriaminepentaaceticacid (DETAPAC), and 3 mM MgCl2 in a final incubation volume of 0.25 mL. […] After centrifugation at 3000 rpm for 5 min, the organic fraction was collected, the solvent was removed with a stream of argon and the residue was reconstituted in 125 μL of MeOH and 125 μL H2O, mixed thoroughly, centrifuged at 13,000 rpm for 5 min and analyzed by high performance liquid chromatography. Samples were run on a Hitachi D-7000 HPLC system using a L-7100 analytical pump, L-7400 UV-Visible variable wavelength detector, and L-7600 automatic sample injector. […] Disappearance of the analyte was monitored over time. A plot of the area under the curve for the normalized analyte versus time afforded the half-life values and kapp.
Microsomes contain CYPs and FMO metabolic enzymes. S9 contains soluble enzymes (i.e., aldehyde oxidase, MAO, etc.).

[2] = target: Nav1.5 sodium channel transfected into HEK293 cells (Homo sapiens, UniProt Q14524); test: in vitro
Description: (§2) This provided data to investigate the physiology and action of target compounds on individual ion channels. The assay used standardized protocols for culturing and conducting conventional whole cell recording that have been previously developed for both current and voltage-clamp to characterize action potentials using transfected cells. Briefly, the Nav1.5 sodium channel was transfected into HEK293 cells. […] Briefly, cells were plated on 0.1% gelatin-coated 35-mm plastic Petri dishes. […] Data was reported as IC50 values±STD (Table 1).

[3] = target: Nav1.5 sodium channel, peak current (INaP) (Homo sapiens, UniProt Q14524, form not given); test: in vitro
Description: as §2

[4] = target: hERG potassium channel (IKr) (Homo sapiens, UniProt Q12809); test: Automated patch clamp, hERG (IKr) expressed in CHO cells; details: for IC50: hERG (IKr) IC50, CHO cells
Chain of hERG potassium channel (IKr) (Q12809 whole entry): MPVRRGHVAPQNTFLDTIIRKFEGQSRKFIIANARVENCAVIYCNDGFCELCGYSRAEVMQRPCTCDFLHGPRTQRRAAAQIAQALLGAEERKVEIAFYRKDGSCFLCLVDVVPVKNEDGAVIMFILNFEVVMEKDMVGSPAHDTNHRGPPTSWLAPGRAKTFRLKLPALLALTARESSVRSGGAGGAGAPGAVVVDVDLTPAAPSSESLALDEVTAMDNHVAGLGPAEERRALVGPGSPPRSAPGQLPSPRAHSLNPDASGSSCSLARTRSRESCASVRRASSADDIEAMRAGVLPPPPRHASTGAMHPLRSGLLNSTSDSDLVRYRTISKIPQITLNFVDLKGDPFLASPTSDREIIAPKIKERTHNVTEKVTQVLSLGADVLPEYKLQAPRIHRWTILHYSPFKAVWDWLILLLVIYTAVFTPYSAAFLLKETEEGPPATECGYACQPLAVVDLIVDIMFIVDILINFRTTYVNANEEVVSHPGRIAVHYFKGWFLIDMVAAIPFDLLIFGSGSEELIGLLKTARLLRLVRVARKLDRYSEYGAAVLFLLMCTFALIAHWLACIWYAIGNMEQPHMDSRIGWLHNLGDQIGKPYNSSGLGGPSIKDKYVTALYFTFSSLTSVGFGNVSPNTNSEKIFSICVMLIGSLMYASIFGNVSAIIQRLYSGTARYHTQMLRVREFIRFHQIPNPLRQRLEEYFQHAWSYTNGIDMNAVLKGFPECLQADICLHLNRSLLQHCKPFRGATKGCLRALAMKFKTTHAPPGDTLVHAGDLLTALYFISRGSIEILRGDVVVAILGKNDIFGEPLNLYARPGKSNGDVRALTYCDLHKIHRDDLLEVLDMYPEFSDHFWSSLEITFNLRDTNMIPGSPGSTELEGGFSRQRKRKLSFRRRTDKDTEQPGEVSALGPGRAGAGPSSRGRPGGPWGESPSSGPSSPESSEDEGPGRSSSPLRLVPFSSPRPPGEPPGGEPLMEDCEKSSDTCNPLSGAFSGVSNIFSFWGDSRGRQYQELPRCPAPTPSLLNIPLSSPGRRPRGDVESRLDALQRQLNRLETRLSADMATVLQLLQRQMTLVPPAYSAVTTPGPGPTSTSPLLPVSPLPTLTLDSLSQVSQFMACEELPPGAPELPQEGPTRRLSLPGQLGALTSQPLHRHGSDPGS

[5] = test system: cardiomyocytes derived from hiPSCs from a LQTS3 patient; test: cells; details: Homo sapiens, Cardiomyocyte, read-out: LQT-IC50 (uM)-Shortening
[6] = test system: normal human induced pluripotent stem cell (hiPSC) cardiomyocyte; details: normal hiPSC cardiomyocytes; for WT-Fold Prolongation: APD
[7] = test system: cardiomyocytes derived from hiPSCs from a LQTS3 patient; details: LQT3 cardiomyocytes
[8] = Metabolic stability in human liver microsomes; format: in vitro ADME; details: human, microsomes, 1 h
Description: as §1

Male BALBc mice = details: mice, 100 mg/kg
Excerpt: Male BALBc mice (20-22 g) were used throughout these studies. The animals were maintained in a temperature-controlled room with 12-hr periods of light and darkness and had continuous access to water and animal food. […] Groups contained 2-4 animals.

[9] = ratio peak/late IC50, Example 2

| Structure (SMILES) | IC50 [2] [µM] | DNap/NaL ([2]; ratio peak IC50/late IC50) | DNap/NaL [2, 9] | IC50 ([3]; Peak Na+ (INaP) IC50) [µM] | IC50 [4] [µM] | IC50 ([4]; Example 2) [µM] | DKr/NaL ([4]; ratio hERG IC50/late Na IC50) | DNaP/Kr ([4]; ratio peak Na IC50/hERG IC50) | DKr/NaL ([4]; ratio, Example 2) | DNaP/Kr ([4]; ratio, Example 2) | IC50 [5] [µM] | WT-Fold Prolongation [6] | LQT-Cessation Dose [7] | LQT-Fold Shortening [7] | further results |
| --- | --- | --- | --- | --- | --- | --- | --- | --- | --- | --- | --- | --- | --- | --- | --- |
| Cc1cccc(C)c1OC[C@@H](C)N [(R)-Mexiletine, reference compound] | – | – | – | – | – | – | – | – | – | – | – | – | – | – | Liver S-9, remaining after 1 hr ([1]; human liver S-9, 1 hr): >95% after 1 hr |
| Cc1cccc(C)c1OC[C@H](C)N [(S)-Mexiletine, reference compound] | – | – | – | – | – | – | – | – | – | – | – | – | – | – | Liver S-9, remaining after 1 hr ([1]; human liver S-9, 1 hr): >95% after 1 hr |
| Cc1cc(C)cc(OCC(N)C2CC2)c1.Cl (stereo not drawn) [Compound 91] | 10 | 7.7 | 7.68 | 76.8 | 45.8 | 45.8 | 4.6 | 1.7 | 4.6 | 1.7 | – | – | – | – | – |
| Cc1cccc(C)c1OCC(N)C1CC1 (stereo not drawn) [Compound 10] | 7.3 | 18.0 | – | 130 | 30 | – | 4.1 | 4.3 | – | – | 0.8 | 2.262 | 200 µM | 1.162 | WT-EAD Dose [6]: 66 µM |
| Cl.NC(COc1cc(C(F)(F)F)cc(C(F)(F)F)c1)c1ccccc1 (stereo in doubt) [(R)-78] | – | – | – | – | – | – | – | – | – | – | – | – | – | – | Liver Microsomes, remaining after 1 hr [8]: >95% after 1 hr; Liver S-9, remaining after 1 hr ([1]; human, s9, 1 h): >95% after 1 hr; Behavior Effect (R)-enantiomer (Male BALBc mice): No detectable effect; behavioral effects at 100 mg/kg (Male BALBc mice; enantiomers): no apparent behavioral effects |
| CNC(C)COc1c(C)cccc1C (stereo not drawn) [Compound 11, 1-(2,6-dimethylphenoxy)-N-methylpropan-2-amine] | 36 | 3.4 | – | 124 | 44 | – | 1.2 | 2.8 | – | – | 1.48 | 2.194 | 133 µM | 1.112 | WT-EAD Dose [6]: 22 µM |
| Cc1ccc(OCC(N)c2ccccc2)c(C)c1.Cl (stereo not drawn) [Compound 66] | – | 10.5 | 10.7 | 22.1 | 5.9 | 5.9 | 2.8 | 3.7 | 2.8 | 3.7 | 0.486 | None | 66 µM | 1.192 | Cessation of Beating [6]: 66 µM; WT-Prolongation Dose [6]: None |
| Cc1ccccc1OCC(N)c1ccccc1.Cl (stereo in doubt) [(R)-25] | – | – | – | – | – | – | – | – | – | – | – | – | – | – | Liver S-9 T1/2 ([1]; human, s9): 6.8 h |
| Cc1cccc(C)c1OC[C@@H](C)N [Compound 2a, (R)-(−)-Mexiletine Hydrochloride, reference compound] | – | – | – | 128 | 54 | – | – | – | – | – | 0.96 | – | None | – | WT-EAD Dose [6]: 200 µM |
| COCCNC(COc1ccccc1C)c1ccccc1.Cl (stereo not drawn) [Compound 90] | – | 11.8 | 11.8 | – | – | 25.3 | – | – | 1.32 | 1.32 | – | None | 133 µM | 1.1 | IC50 ([2]; read-out: Late Na+ (INaL) IC50, patch clamp, transfected cells): 2.83 µM; IC50 ([2]; read-out: Late Na+ (INaL) IC50, transfected cells, Example 2): 2.83 µM; IC50 ([2]; read-out: Peak Na+ (INaP) IC50, transfected cells, Example 2): 33.4 µM; IC50 [3]: 33.4 µM; Cessation of Beating [6]: 133 µM; WT-Prolongation Dose [6]: None |
| Cc1cccc(OCC(N)c2ccccc2)c1C (stereo not drawn) [Compound 35, 2-(2,3-dimethylphenoxy)-1-phenylethanamine] | 1.03 | – | 10.6 | 10.9 | – | 9.2 | – | – | 8.9 | 1.2 | – | None | 66 µM | 1.406 | Cessation of Beating [6]: 133 µM; WT-Prolongation Dose [6]: None |

Reference: patent publication US11492325B2, “Compounds as inhibitors of sodium channels” (Human BioMolecular Research Institute, priority 2016, dated 2022)
